Source: patent US20110150914A1, “COMPOSITIONS AND METHODS FOR DENGUE VIRUS (DV) TREATMENT AND VACCINATION” (priority 2008, published 2011)
Ends that are not written are not given here.

Experiments:
CD8^+ T cells [1] = assay: Intracellular cytokine staining (IFN-γ), splenocytes of S221-infected IFN-α/βR^−/− mice; type: cell-based; details: day 7 after 10^10 GE S221
Procedure: (§1) All Ab were purchased from eBioscience with the exception of anti-CD8α-PerCP and anti-CD107a-FITC which were obtained from BD Biosciences. RBC in blood were lysed using RBC lysis buffer (eBioscience). For surface staining, splenocytes or blood cells were washed, incubated with supernatant from 2.4G2-producing hybridoma cells to block Fc receptors, and labeled with anti-CD8α-PerCP, anti-CD44-APC, and anti-CD62L-PE. For intracellular cytokine staining, 10^6 splenocytes or 10^5 blood cells were plated in 96-well U-bottom plates and stimulated with individual DENV peptides (0.1 μg/ml) in the presence of brefeldin A (GolgiPlug, BD Biosciences) for 5 h. For CD107a staining, CD107a-FITC (or rat IgG2a-FITC) was added to the wells at the same time as the peptide. Cells were washed, incubated with 2.4G2 supernatant, labeled with anti-CD8α-PerCP, fixed and permeabilized using the BD Cytofix/Cytoperm Kit, and stained with anti-IFN-γ-APC and anti-TNF-α-PE. Samples were read on a FACS Caliber (BD Biosciences) and analyzed using FloJo software (Tree Star, Inc.)
The S221-specific CD8^+ T cell response in the IFN-α/βR^−/− mice was studied. […]
The S221-specific CD8^+ T cell response in IFN-α/βR^−/− mice was further studied. […] Referring to FIGS. 5C, 5E and 5F, the number of splenic CD8^+ T cells in naïve (n=4) and infected (n=7) mice was measured (results described above). […] The data are expressed as the percent±SEM of seven mice tested in three independent experiments.
The initial epitope identification studies were performed in wild-type mice. […] Cells were then stained for surface CD8 and intracellular IFN-γ and analyzed by flow cytometry. […] Results are expressed as the mean±SEM of 13 wild-type and 7 IFN-α/βR^−/− mice were tested in at least three independent experiments. Referring FIGS. 8C and D, the figures show kinetics of the DENV-specific CD8^+ T cell response as determined by the study. […]

CD8^+ T cells [2] = assay: IFN-γ ELISPOT with CD8^+ T cells of DENV2-infected C57BL/6 mice; type: cell-based; details: PL046 or S221 infected C57BL/6 mice
CD8^+ T cells [3] = assay: Intracellular cytokine staining (IFN-γ), splenocytes of S221-infected wild-type mice; type: cell-based, C57BL/6 mice
Procedure: as §1
To confirm that the IFN-γ response to the MHC class I-binding DENV peptides was mediated by CD8^+ T cells, intracellular cytokine staining (ICS) on CD8^+ T cells isolated from S221-infected wild-type mice was performed. Splenocytes were harvested from C57BL/6 mice 7 days after infection with 10^11 genomic equivlalents (GE) S221 and were re-stimulated in vitro with individual DENV2 peptides or an irrelevant peptide (irr) at 0.1 μg/ml in the presence of brefeldin A for 5 h. Cells were then stained for surface CD8 and intracellular IFN-γ and analyzed by flow cytometry. […] The percent of CD8^+ T cells producing IFN-γ is indicated. Referring to FIG. 2B, the figure is a summary of the DENV2-specific CD8^+ IFN-γ^+ response. The response to the irrelevant control peptide was subtracted from the responses to each DENV2 peptide. Each symbol represents one mouse and the bar represents the geometric mean. The identification of the 12 positive peptides for S221 was confirmed by the intracellular cytokine staining (ICS) (FIG. 2A), and the response to the 8 most dominant peptides was determined (FIG. 2B). The responses ranged from 0.14% recognizing NS2A 36 to 9.8% of CD8^+ T cells recognizing NS4B 99.
Splenocytes were harvested from naïve C57BL/6 mice or mice 7 days after infection with 10^11 GE of S221. The percent of CD8^+ T cells expressing CD44 and CD62L was determined in four independent studies (FIG. 3A). On day 7 after infection, splenocytes were stimulated with the eight major DENV2 peptides (individually; at 0.1 μg/ml) in the presence of brefeldin A, and stained for surface CD8 and intracellular IFN-γ. The percent of CD8^+ T cells producing IFN-γ in response to the irrelevant control peptide was subtracted from the response to each DENV2 peptide to determine the net response. The net responses to the eight major DENV2 peptides were added to determine the percent of DENV2-specific CD44^hi, CD62^lo, and CD44^hiCD62L^lo CD8^+ T cells (FIG. 3B). The data are expressed as the mean percent±SEM of 11-14 mice tested in at least four independent experiments.

[4] = tested on: DENV peptide-pulsed target cells; assay: In vivo cytotoxicity assay; details: IFN-α/βR^−/− mice infected 7 days previously with 10^10 GE S221; 4 h after i.v. transfer; targets pulsed 0.5 μg/ml

## YSQVNPITL [NS4B99-107]
CD8^+ T cells [1]
  % of splenic CD8^+ T cells recognizing the peptide: 16.5%
CD8^+ T cells [1]; spleen
  number of CD8^+ T cells producing IFN-γ (average): 1.1×10^7 CD8^+ T cells
CD8^+ T cells [2]
  IFN-γ ELISPOT response (net SFC per 10^6 CD8^+ T cells), in words: highest responses
CD8^+ T cells [3]; wild-type C57BL/6, day 7 after 10^11 GE S221, peptide 0.1 μg/ml, 5 h
  percent of CD8^+ T cells producing IFN-γ / recognizing the peptide: 9.8%
CD8^+ T cells [3]; wild-type C57BL/6 mice
  share of the DENV2-specific response: 30%
CD8^+ T cells [3]; wild-type mice, day 7 after 10^11 GE S221
  % of splenic CD8^+ T cells (corresponding to average number): 5.9%
CD8^+ T cells [3]; wild-type mice, spleen, day 7 after 10^11 GE S221
  number of CD8^+ T cells producing IFN-γ (average): 6.3×10^5 CD8^+ T cells
[4]
  percentage killing of peptide-pulsed target cells: 85%
